Marks after values point to notes of the source that are not given here.
Assays:
human opioid μ receptor = target: T1, human opioid μ receptor (Homo sapiens, UniProt P35372); test: Opioid receptor function test (Lance Ultra cAMP Kit), μ receptor; format: cell-based; conditions: for μ receptor reaction rate at the maximum concentration (reference value, marked *): maximum reaction not reached, maximum concentration 10 μM, DAMGO = 100%; for EC50: CHO cells expressing human μ receptor, cAMP, in the presence of forskolin, read-out: μ receptor EC50 value; for Emax: ratio to maximum reaction of control drug DAMGO taken as 100%
T1 construct: host or cells: CHO cells
T1 sequence (P35372 whole entry): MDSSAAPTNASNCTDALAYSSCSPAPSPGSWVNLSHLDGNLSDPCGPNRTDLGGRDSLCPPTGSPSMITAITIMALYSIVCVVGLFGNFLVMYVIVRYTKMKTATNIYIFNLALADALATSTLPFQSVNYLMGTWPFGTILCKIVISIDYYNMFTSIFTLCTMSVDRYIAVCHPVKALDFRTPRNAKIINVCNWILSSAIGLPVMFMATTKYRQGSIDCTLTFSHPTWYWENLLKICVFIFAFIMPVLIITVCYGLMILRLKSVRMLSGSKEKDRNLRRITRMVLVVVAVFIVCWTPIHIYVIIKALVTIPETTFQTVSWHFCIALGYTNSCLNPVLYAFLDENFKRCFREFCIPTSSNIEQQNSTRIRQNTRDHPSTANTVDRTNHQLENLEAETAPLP
Protocol: (§1) Opioid Receptor Function Test
(§2) The functional activities of the compounds provided by the present invention on the μ, δ, and κ opioid receptors were investigated.
(§3) The test was performed by using Lance Ultra cAMP Kit (PerkinElmer) according to a method predetermined for the kit. In the evaluation of the agonistic activity, CHO cells expressing each of the human opioid receptors (δ, μ, and κ, accession numbers and catalog numbers are mentioned below) and 10 μM of each test compound were reacted for 30 minutes in an assay buffer (1× HBSS, […], pH 7.4, […] (isobutylmethylxanthine), 7.5% BSA) in the presence of forskolin. Subsequently, the cAMP detection reagent included in the kit was added, and 1 hour afterward, time-resolved fluorescence measurement was performed by using the EnVision plate reader (PerkinElmer). The test compounds and the control drugs (δ: SNC80, μ: DAMGO, κ: U-69593) were evaluated in a concentration range of 10^−12 to 10^−5 M, a dose-response curve of each test compound was obtained from the fluorescence values at 665 nm, and EC50 value and the Emax value were calculated. The Emax value was calculated as a ratio of the maximum reaction of the test compound to the maximum reaction of each control drug, which is taken as 100%.
(§4) • δ: Catalog No. CT4607, Accession No. NM_000911.2 • μ: Catalog No. CT4605, Accession No. NM_000914 • κ: Catalog No. CT4606, Accession No. NM_000912 (ChanTest Corporation)

C57BL/6N male mice = test: Mouse elevated plus maze test; format: in vivo; conditions: subcutaneous
Protocol: Mouse Elevated Plus Maze Test
For the test, 5 to 6 weeks old C57BL/6N male mice were used. On a plus maze apparatus consisting of a wall-less running route (open arm, width 6 cm, length 30 cm) and a running route with a wall (closed arm, width 6 cm, length 30 cm, height of wall 15 cm), and having a height of 40 cm, a mouse was put so as to be directed to the running route with a wall, and allowed to spontaneously enter into the plus maze. Each test substance was dissolved in saline or 0.005 N HCl in saline, and subcutaneously administered on the back 30 minutes before the start of the test. At the time of the start of the test, video recording with a video camera was started, the time at which the mouse entered into the plus maze is considered to be the start of the test, and exploratory behavior was recorded for 5 minutes. On the basis of the video image, staying times in the running routes were determined, and wall-less running route staying time ratio (%) was calculated.

Metabolic stability test = format: in vitro ADME; conditions: liver microsomes; human hepatic microsomes, 0 to 60 minutes; read-out: metabolic clearance CLint
Protocol: Human hepatic microsomes and a test substance were reacted for a certain period of time (0 to 60 minutes). The test substance, which was not metabolized in the reaction sample, was measured, and remaining ratio was calculated. The test substance-remaining ratio at the time when the reaction time is 0 hour is taken as 100%. The remaining ratio after incubation was plotted against time as a log-linear plot to obtain a regression line (y=100 e^−kt, k=inclination of straight line: clearance rate constant), and metabolic clearance CLint (mL/min/kg) was calculated by using the following equation. CLint*=k(−min)×52.5(mg MS protein/g liver)×26(g liver/kg)/MS protein (mg MS protein/mL) • *: Davies, B. and Morris T., Physiological parameters in laboratory animals and humans, Pharm. Res., 10(7)1093-1095, 1993 (Test Results)

human opioid δ receptor = target: T2, human opioid δ receptor (Homo sapiens, UniProt P41143); test: Opioid receptor function test (Lance Ultra cAMP Kit), δ receptor; format: cell-based; conditions: for EC50: CHO cells expressing human δ receptor, cAMP, in the presence of forskolin; for Emax: ratio to maximum reaction of control drug SNC80 taken as 100%
T2 construct: host or cells: CHO cells
T2 sequence (P41143 whole entry): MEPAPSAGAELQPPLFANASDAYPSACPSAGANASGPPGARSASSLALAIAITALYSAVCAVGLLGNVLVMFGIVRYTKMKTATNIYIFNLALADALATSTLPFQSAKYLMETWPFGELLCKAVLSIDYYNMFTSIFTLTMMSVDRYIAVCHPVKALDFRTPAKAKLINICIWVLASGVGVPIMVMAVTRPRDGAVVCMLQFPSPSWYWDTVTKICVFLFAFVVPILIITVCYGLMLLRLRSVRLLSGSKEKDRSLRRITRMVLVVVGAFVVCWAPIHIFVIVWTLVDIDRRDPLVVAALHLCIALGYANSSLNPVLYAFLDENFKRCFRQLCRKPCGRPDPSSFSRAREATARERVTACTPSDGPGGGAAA
Protocol: as §1, §2, §3, §4

human opioid κ receptor = target: T3, human opioid κ receptor (Homo sapiens, UniProt P41145); test: Opioid receptor function test (Lance Ultra cAMP Kit), κ receptor; format: cell-based; conditions: for EC50: CHO cells expressing human κ receptor, cAMP, in the presence of forskolin; for Emax: ratio to maximum reaction of control drug U-69593 taken as 100%
T3 construct: host or cells: CHO cells
T3 sequence (P41145 whole entry): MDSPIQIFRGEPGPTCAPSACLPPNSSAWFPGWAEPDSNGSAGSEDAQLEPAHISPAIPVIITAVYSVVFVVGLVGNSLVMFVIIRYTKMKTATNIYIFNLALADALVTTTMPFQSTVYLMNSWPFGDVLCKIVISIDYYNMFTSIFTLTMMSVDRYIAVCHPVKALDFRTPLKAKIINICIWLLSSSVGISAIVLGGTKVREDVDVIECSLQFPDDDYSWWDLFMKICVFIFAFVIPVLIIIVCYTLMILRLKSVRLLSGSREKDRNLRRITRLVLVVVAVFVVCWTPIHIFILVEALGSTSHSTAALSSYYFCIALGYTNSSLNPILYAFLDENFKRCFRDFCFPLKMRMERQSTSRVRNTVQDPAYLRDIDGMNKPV
Protocol: as §1, §2, §3, §4

hERG potassium channel = target: T4, hERG potassium channel (Homo sapiens, UniProt Q12809); test: hERG potassium channel inhibition test (automatic patch clamp); format: cell-based; conditions: pH 7.4, hERG-expressing CHO cells, tail current, read-out: hERG channel inhibitory action
T4 construct: host or cells: CHO cells
T4 sequence (Q12809 whole entry): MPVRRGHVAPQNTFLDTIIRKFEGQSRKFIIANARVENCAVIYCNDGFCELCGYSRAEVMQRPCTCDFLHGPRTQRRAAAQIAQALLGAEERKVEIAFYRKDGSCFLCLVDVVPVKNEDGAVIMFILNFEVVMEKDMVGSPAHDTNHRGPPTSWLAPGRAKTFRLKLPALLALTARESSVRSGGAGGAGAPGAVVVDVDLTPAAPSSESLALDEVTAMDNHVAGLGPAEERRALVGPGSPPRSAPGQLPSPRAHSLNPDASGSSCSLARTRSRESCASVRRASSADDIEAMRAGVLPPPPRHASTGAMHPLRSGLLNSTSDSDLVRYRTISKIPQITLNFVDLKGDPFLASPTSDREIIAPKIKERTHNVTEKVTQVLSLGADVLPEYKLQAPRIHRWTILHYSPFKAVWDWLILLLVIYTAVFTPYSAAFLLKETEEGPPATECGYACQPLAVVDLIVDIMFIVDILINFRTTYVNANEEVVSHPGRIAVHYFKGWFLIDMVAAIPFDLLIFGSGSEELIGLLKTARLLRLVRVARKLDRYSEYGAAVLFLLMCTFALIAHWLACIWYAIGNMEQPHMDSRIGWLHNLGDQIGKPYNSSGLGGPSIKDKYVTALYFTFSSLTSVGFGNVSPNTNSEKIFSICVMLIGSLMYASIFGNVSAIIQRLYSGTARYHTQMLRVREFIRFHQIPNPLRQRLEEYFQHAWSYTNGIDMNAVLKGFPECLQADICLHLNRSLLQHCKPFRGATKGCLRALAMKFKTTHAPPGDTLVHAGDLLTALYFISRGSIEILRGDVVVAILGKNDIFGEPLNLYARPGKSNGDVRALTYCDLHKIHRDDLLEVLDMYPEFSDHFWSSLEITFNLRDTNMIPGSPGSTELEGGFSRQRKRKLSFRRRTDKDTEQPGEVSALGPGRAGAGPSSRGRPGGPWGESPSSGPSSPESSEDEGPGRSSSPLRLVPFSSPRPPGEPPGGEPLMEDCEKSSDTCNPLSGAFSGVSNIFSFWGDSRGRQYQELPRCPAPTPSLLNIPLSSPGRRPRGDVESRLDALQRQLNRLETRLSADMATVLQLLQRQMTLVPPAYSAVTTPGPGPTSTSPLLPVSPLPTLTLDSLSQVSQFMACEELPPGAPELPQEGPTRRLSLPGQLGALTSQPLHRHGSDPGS
Protocol: hERG (Human Ether-A-Go-Go-Related Gene) Potassium Channel Inhibition Test
The test was performed with Port-a-Patch automatic patch clump apparatus (Nanion Technologies) using hERG channel-stably expressing CHO cells (purchased from Channelopathy Foundation). The membrane potential of the cells was maintained at −80 mV, then there were applied a depolarization pulse at +20 mV for 1.5 seconds, and a following test pulse at −50 mV for 1.5 seconds at a frequency of 1 time per 10 seconds, and the hERG current was confirmed as a tail current induced by the test pulse. The test compound was dissolved in an extracellular fluid (137 mM NaCl, 4 mM KCl, 1.8 mM CaCl2, 1 mM MgCl2, 10 mM D(+)-glucose, 10 mM HEPES, pH 7.4), and the solution was refluxed at room temperature for 5 minutes. The inhibition ratio was obtained from the ratio of the tail current value observed after the compound was applied based on the tail current value observed before the compound was applied, which was taken as 100%.

Wistar male rats = test: Rat elevated plus maze test; format: in vivo; conditions: oral, 3 mg/kg, 2 hours before test (FIG. 6)
Protocol: Rat Elevated Plus Maze Test
Anxiolytic effects of the compounds provided by the present invention were investigated by the rat elevated plus maze test.
For the test, 7 to 9 weeks old Wistar male rats were used. […] Each test substance was dissolved in a 4.5% aqueous solution of cyclodextrin, and orally administered 2 hours before the start of the test. The test data were automatically analyzed by using video image action analysis software (Smart3.0, PanLab S.L., PanLab), and wall-less running route staying time ratio (%) was calculated.

| Compound | μ receptor reaction rate at the maximum concentration (reference value, marked *) (human opioid μ receptor) | wall-less running route staying time ratio (C57BL/6N male mice; 3 mg/kg, 30 minutes before test (FIG. 1)) | CLint scaled (Metabolic stability test) | EC50 (human opioid δ receptor) | Emax (human opioid δ receptor) | EC50 (human opioid κ receptor) | Emax (human opioid κ receptor) | inhibition at 5 min, 10 µM (hERG potassium channel) | EC50 (human opioid μ receptor) | Emax (human opioid μ receptor) | wall-less running route staying time ratio (C57BL/6N male mice; dose not stated (FIGS. 3 to 5)) | wall-less running route staying time ratio (Wistar male rats) | κ receptor reaction rate at the maximum concentration (reference value, marked *) (human opioid κ receptor; maximum reaction not reached, maximum concentration 10 μM, U-69593 = 100%) |
| --- | --- | --- | --- | --- | --- | --- | --- | --- | --- | --- | --- | --- | --- |
| O=C(c1cccc[n+]1[O-])N1C[C@H]2C[C@@]34CC[C@@H]1[C@@H]2[C@@]31CCN(CC2CC2)[C@@H]4Cc2ccc(O)cc21 [Example 1, 2-((1S,3aR,5aS,6R,11bR,11cS)-14-(cyclopropylmethyl)-10-hydroxy-2,3,3a,4,5,6,7,11c-octahydro-1H-6,11b-(epiminoethano)-1,5a-methanonaphtho[1,2-e]indole-3-carbonyl)pyridine 1-oxide] | 8.3* % | significantly increased | 19 mL/min/kg | < 3 nM | 88% | > 1 nM | 12% | < 50% |  |  |  |  |  |
| O=C(c1ccc[nH]c1=O)N1C[C@H]2C[C@@]34CC[C@@H]1[C@@H]2[C@@]31CCN(CC2CC2)[C@@H]4Cc2ccc(O)cc21 [Example 3, 3-((1S,3aR,5aS,6R,11bR,11cS)-14-(cyclopropylmethyl)-10-hydroxy-2,3,3a,4,5,6,7,11c-octahydro-1H-6,11b-(epiminoethano)-1,5a-methanonaphtho[1,2-e]indole-3-carbonyl)pyridin-2(1H)-one] |  |  |  | < 3 nM | 98% | < 1 nM | 15% | < 50% | > 1 nM | 20% | tendency of increasing | significantly increased |  |
| Cn1cc(C(=O)N2C[C@H]3C[C@@]45CC[C@@H]2[C@@H]3[C@@]42CCN(CC3CC3)[C@@H]5Cc3ccc(O)cc32)ccc1=O [Example 9, 5-((1S,3aR,5aS,6R,11bR,11cS)-14-(cyclopropylmethyl)-10-hydroxy-2,3,3a,4,5,6,7,11c-octahydro-1H-6,11b-(epiminoethano)-1,5a-methanonaphtho[1,2-e]indole-3-carbonyl)-1-methylpyridin-2(1H)-one] |  |  |  | < 3 nM | 74% | < 1 nM | 14% | < 50% | < 1 nM | 15% | tendency of increasing |  |  |
| Cn1c(C(=O)N2C[C@H]3C[C@@]45CC[C@@H]2[C@@H]3[C@@]42CCN(CC3CC3)[C@@H]5Cc3ccc(O)cc32)cccc1=O [Example 10, 6-((1S,3aR,5aS,6R,11bR,11cS)-14-(cyclopropylmethyl)-10-hydroxy-2,3,3a,4,5,6,7,11c-octahydro-1H-6,11b-(epiminoethano)-1,5a-methanonaphtho[1,2-e]indole-3-carbonyl)-1-methylpyridin-2(1H)-one] | 6.0* % |  | 13 mL/min/kg | < 3 nM | 74% |  |  | < 50% |  |  | tendency of increasing | significantly increased | −0.7* % |
| O=C(c1ccc(=O)[nH]n1)N1C[C@H]2C[C@@]34CC[C@@H]1[C@@H]2[C@@]31CCN(CC2CC2)[C@@H]4Cc2ccc(O)cc21 [Example 16, 6-((1S,3aR,5aS,6R,11bR,11cS)-14-(cyclopropylmethyl)-10-hydroxy-2,3,3a,4,5,6,7,11c-octahydro-1H-6,11b-(epiminoethano)-1,5a-methanonaphtho[1,2-e]indole-3-carbonyl)pyridazin-3(2H)-one] |  |  | 18 mL/min/kg | < 3 nM | 92% | < 1 nM | 29% |  | > 1 nM | 19% |  |  |  |

Reference: patent US11633392B2 (priority 2016, dated 2023)
